According to patent US10688093B2, “Methods, compositions, and uses of novel Fyn kinase inhibitors” (priority 2015, dated 2020):
pIC50: −log10 of the molar value.

target: full-length recombinant human FYN A (Homo sapiens (Human), UniProt P06241); test: ADP-Glo Kinase Assay of FYN kinase inhibition; type: biochemical; settings: secondary screen, re-synthesized and expanded compounds
Summary of the method: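 GST-tagged full-length FYN A (baculovirus, Sf9) at 3 pg preincubated 30 min RT with compound (10-point 3-fold series from 10 μM) in Tris pH 7.5/MgCl2 buffer. 12-mer tyrosine peptide plus 12.5 pmol ATP added, 90 min RT; ADP measured by ADP-Glo luminescence, IC50 from dose-response.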

full-length recombinant human FYN A, sequence (P06241 whole entry): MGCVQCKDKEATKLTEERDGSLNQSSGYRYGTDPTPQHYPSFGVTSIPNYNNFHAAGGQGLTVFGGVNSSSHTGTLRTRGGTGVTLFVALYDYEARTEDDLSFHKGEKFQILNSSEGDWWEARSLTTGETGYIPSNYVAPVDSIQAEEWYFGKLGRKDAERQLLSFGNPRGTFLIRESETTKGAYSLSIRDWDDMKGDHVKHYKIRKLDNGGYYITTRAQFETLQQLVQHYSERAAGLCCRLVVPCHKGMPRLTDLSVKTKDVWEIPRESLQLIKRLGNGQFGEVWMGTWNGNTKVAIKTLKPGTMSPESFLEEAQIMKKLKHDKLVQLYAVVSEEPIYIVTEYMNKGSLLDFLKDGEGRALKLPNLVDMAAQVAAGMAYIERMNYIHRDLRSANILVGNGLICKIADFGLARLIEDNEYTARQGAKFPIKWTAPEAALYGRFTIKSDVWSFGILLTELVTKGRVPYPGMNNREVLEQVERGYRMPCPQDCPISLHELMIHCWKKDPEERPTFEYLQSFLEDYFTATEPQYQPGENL

Structure (SMILES)	pIC50
COc1cc(-c2cnc3ccc(N[C@H](CO)C(C)C)nn23)ccc1O [BF000146319, 4-[6-[[(1S)-1-(hydroxy-methyl)-2-methyl-propyl]-amino]-imidazo[1,2-b]pyridazin-3-yl]-2-methoxy-phenol]	6.35
c1ccc(CNc2ccc3ncc(-c4ccc5c(c4)OCO5)n3n2)nc1 [BF000146330, 3-(1,3-benzodioxol-5-yl)-N-(2-pyridyl-methyl)-imidazo[1,2-b]pyridazin-6-amine]	6.45
COc1ccc(-c2cnc3ccc(NCc4cccs4)nn23)cc1OC [BF000146992, 3-(3,4-dimetboxy-phenyl)-N-(2-thienyl-methyl)-imidazo[1,2-b]pyridazin-6-amine]	6.14
CCCNc1ccc2ncc(-c3ccncc3)n2n1 [BF000147056, N-propyl-3-(4-pyridyl)-imidazo[1,2-b]pyridazin-6-amine]	6.66
CCCNc1ccc2ncc(-c3ccc(OC)c(OC)c3)n2n1 [BF000147061, 3-(3,4-dimethoxy-phenyl)-N-propyl-imidazo[1,2-b]pyridazin-6-amine]	6.54
CCCNc1ccc2ncc(-c3cccc(O)c3)n2n1 [BF000147075, 3-[6-(propylamino)-imidazo[1,2-b]pyridazin-3-yl]phenol]	6.23
CCCNc1ccc2ncc(-c3ccc(O)c(OC)c3)n2n1 [BF000147080, 2-methoxy-4-[6-(propyl-amino)-imidazo[1,2-b]pyridazin-3-yl]phenol]	7.09
CCCNc1ccc2ncc(-c3cccc(C(C)=O)c3)n2n1 [BF000147088, 1-[3-[6-(propyl-amino)-imidazo[1,2-b]pyridazin-3-yl]phenyl]-ethanone]	6.39
CC(=O)c1cccc(-c2cnc3ccc(NCc4ccc5c(c4)OCO5)nn23)c1 [BF000147140, 1-[3-[6-(1,3-benzodioxol-5-ylmethyl-amino)-imidazo[1,2-b]pyridazin-3-yl]phenyl]-ethanone]	5.50
COc1cc(-c2cnc3ccc(NC4CCOCC4)nn23)ccc1O [BF000147168]	6.95
COc1ccc(-c2cnc3ccc(NCc4ccccn4)nn23)cc1OC [BF000147233, 3-(3,4-dimethoxy-phenyl)-N-(2-pyridyl-methyl)-imidazo[1,2-b]pyridazin-6-amine]	6.31
COc1cc(-c2cnc3ccc(NC4CCOCC4)nn23)cc(OC)c1OC [BF000147394, N-tetrahydro-pyran-4-yl-3-(3,4,5-trimethoxy-phenyl)-imidazo[1,2-b]pyridazin-6-amine]	6.30
COc1cc(-c2cc(-c3ccccc3)cnc2N)cc(OC)c1OC [BF000312489, 5-phenyl-3-(3,4,5-trimethoxy-phenyl)-pyridin-2-amine]	5.88
COc1cc(-c2cc(-c3ccc(N4CCN(C)CC4)cc3)cnc2N)cc(OC)c1OC [BF000312520, 5-[4-(4-methyl-piperazin-1-yl)phenyl]-3-(3,4,5-trimethoxy-phenyl)-pyridin-2-amine]	6.63
COc1cc(-c2cc(-c3ccc(OCCCN(C)C)nc3)cnc2N)cc(OC)c1OC [BF000312521, 5-[6-(3-(dimethyl-amino)-propoxy]-3-pyridyl]-3-(3,4,5-trimethoxy-phenyl)-pyridin-2-amine]	6.15
COc1cc(-c2cc(-c3cccc(O)c3)cnc2N)cc(OC)c1OC [BF000312527, 3-[6-amino-5-(3,4,5-trimethoxy-phenyl)-3-pyridyl]-phenol]	6.28
COc1cc(-c2cc(-c3cccc(C(N)=O)c3)cnc2N)cc(OC)c1OC [BF000312539, 3-[6-amino-5-(3,4,5-trimethoxy-phenyl)-3-pyridyl]-benzamide]	6.31

Structure (SMILES)	pIC50
COc1cc(-c2cc(-c3ccc(C(N)=O)cc3)cnc2N)cc(OC)c1OC [BF000312540, 4-[6-amino-5-(3,4,5-trimethoxy-phenyl)-3-pyridyl]-benzamide]	6.34
COc1cc(-c2cc(-c3ccc(C(=O)NC4CC4)cc3)cnc2N)cc(OC)c1OC [BF000312541, 4-[6-amino-5-(3,4,5-trimethoxy-phenyl)-3-pyridyl]-N-cyclopropyl-benzamide]	6.42
COc1cc(-c2cc(-c3cccc(C(=O)NCCO)c3)cnc2N)cc(OC)c1OC [BF000312542, 3-[6-amino-5-(3,4,5-trimethoxy-phenyl)-3-pyridyl]-N-(2-hydroxy-ethyl)-benzamide]	6.00
COc1cc(-c2cc(-c3ccc(S(C)(=O)=O)cc3)cnc2N)cc(OC)c1OC [BF000312544, 5-(4-methyl-sulfonyl-phenyl)-3-(3,4,5-trimethoxy-phenyl)-pyridin-2-amine]	6.17
COc1cc(-c2cc(-c3cccc(NS(C)(=O)=O)c3)cnc2N)cc(OC)c1OC [BF000312545, N-[3-[6-amino-5-(3,4,5-trimethoxy-phenyl)-3-pyridyl]-phenyl]-methane-sulfonamide]	6.25
COc1cc(-c2cc(-c3ccc(N4CCN(C)CC4)cc3)cnc2N)ccc1O [BF000313028, 4-[2-amino-5-[4-(4-methylpiperazin-1-yl)phenyl]-3-pyridyl]-2-methoxy-phenol]	6.92
COc1cc(-c2cc(-c3cc(OC)c(OC)c(OC)c3)cnc2N)ccc1O [BF000313035, 4-[2-amino-5-(3,4,5-trimethoxy-phenyl)-3-pyridyl]-2-methoxy-phenol]	6.94
COc1cc(-c2cc(-c3ccc(C(N)=O)cc3)cnc2N)ccc1O [BF000313038, 4-[6-amino-5-(4-hydroxy-3-methoxy-phenyl)-3-pyridyl]-benzamide]	6.67
COc1cc(-c2cc(-c3ccc(S(C)(=O)=O)cc3)cnc2N)ccc1O [BF000313040, 4-[2-amino-5-(4-methyl-sulfolyl-phenyl)-3-pyridyl]-2-methoxy-phenol]	6.50
COc1cc(-c2cnc(N)c(-c3ccc(O)cc3)c2)cc(OC)c1OC [BF000313556, 4-[2-amino-5-(3,4,5-trimethoxy-phenyl)-3-pyridyl]-phenol]	6.54
NC(=O)c1ccc(-c2cnc(N)c(-c3ccc(O)cc3)c2)cc1 [BF000313559, 4-[6-amino-5-(4-hydroxy-phenyl)-3-pyridyl]-benzamide]	5.96
CC(=O)Nc1cccc(-c2cnc(N)c(-c3ccc(O)cc3)c2)c1 [BF000313562, N-[3-[6-amino-5-(4-hydroxy-phenyl)-3-pyridyl]-phenyl]-acetamide]	6.05
CS(=O)(=O)c1ccc(-c2cnc(N)c(-c3ccc(O)cc3)c2)cc1 [BF000313563, 4-[2-amino-5-(4-methyl-sulfonyl-phenyl)-3-pyridyl)-phenol]	5.81
CN(C)C(=O)c1cccc(-c2cn3c(-c4ccc(O)cc4)cnc3cn2)c1 [BF000333343, 3-[3-(4-hydroxy-phenyl)-imidazo[1,2-a]pyrazin-6-yl]-N,N-dimethyl-benzamide]	6.06
COc1cc(-c2cnc3cnc(-c4cnn(C)c4)cn23)ccc1O [BF000333452, 2-methoxy-4-[6-(1-methyl-pyrazol-4-yl)-imidazo[1,2-a]pyrazin-3-yl]phenol]	6.20
CN(C)CCCNC(=O)c1ccc(-c2cn3c(-c4ccc(O)cc4)cnc3cn2)cc1 [BF000333874, N-[3-(dimethyl-amino)-propyl]-4-[3-(4-hydroxy-phenyl)-imidazo[1,2-a]pyrazin-6-yl]-benzamide]	6.15
CN1CCN(c2ccc(-c3cn4c(-c5ccc(O)cc5)cnc4cn3)cc2)CC1 [BF000333878, 4-[6-[4-(4-methyl-piperazin-1-yl)phenyl]-imidazo[1,2-a]pyrazin-3-yl]phenol]	6.33
